Where two headings read alike, the source gives them in different places.
Experiments:
A549 cells = assay: Effect on cell cycle arrest and cell death induced by anti-cancer agents, DNA content analysis; assay type: cell-based
Experimental: A549 cells in 6 well plates were cultured for 3 days in the presence or absence of 10 nM Compound A together with 0.1 μM camptothecin, 10 μM vinblastin, 1 μM paclitaxel or 1 μM staurosporine as indicated. The cells were then collected and fixed in 70% ethanol prior to staining with propidium iodide and DNA content determined by flow cytometry. The numbers indicate the % of cells in the various cell cycle phases relative to all cells with ≧2N DNA content and also the % dead cells (ie. subdiploid ≦2N cells) to the left of the dotted marker that arose during the culture period.
This was examined in more detail using DNA content analysis to specifically measure cell cycle progression and cell death. In this experiment in addition to camptothecin and paclitaxel cells were also treated with vinblastin (another microtubule inhibitor) (Sorger et al., 1997, supra) and staurosporine (a kinase inhibitor) (Gescher, Crit Rev Oncol Hematol., 2000, 34(2):127-35).

SK-MEL-2 = assay: NCI in vitro anticancer drug discovery screen (sulforhodamine B); assay type: cell-based; details: Homo sapiens, SK-MEL-2, melanoma, 48 hr
Experimental: (§1) (c) Testing of Compound A against a much larger cell line panel in the NCI in vitro anticancer screen (Table 7) confirmed the results described above. […] Consistent with the data in Table 5 the cytotoxic effects measured after 2 days of culture were more varied with LC50 values ranging from 10 nM for COLO-205 colon tumour cells to ˜90 μM for 786-0 renal tumour cells.

SF-539 = assay: as above; assay type: cell-based; details: Homo sapiens, SF-539, brain, 48 hr
Experimental: as §1

UACC-62 = assay: as above; assay type: cell-based; details: Homo sapiens, UACC-62, melanoma, 48 hr
Experimental: as §1

M14 = assay: as above; assay type: cell-based; details: Homo sapiens, M14, melanoma, 48 hr
Experimental: as §1

MDA-MB-435 = assay: as above; assay type: cell-based; details: Homo sapiens, MDA-MB-435, breast, 48 hr
Experimental: as §1

ACHN = assay: as above; assay type: cell-based; details: Homo sapiens, renal, 48 hr
Experimental: as §1

786-0 = assay: as above; assay type: cell-based; details: Homo sapiens; for CC50: 786-0, 48 h, read-out: LC50 (the source's name)
Experimental: as §1

HT29 = assay: as above; assay type: cell-based; details: Homo sapiens, HT-29, HT29, colon, 48 hr
Experimental: as §1

SNB-75 = assay: as above; assay type: cell-based; details: Homo sapiens, SNB-75, brain, 48 hr
Experimental: as §1

IGROVI = assay: as above; assay type: cell-based; details: Homo sapiens, ovarian, 48 hr
Experimental: as §1

LOX IMV1 = assay: as above; assay type: cell-based; details: Homo sapiens, LOX IMV1, melanoma, 48 hr
Experimental: as §1

COLO-205 = assay: as above; assay type: cell-based; details: Homo sapiens, COLO-205, colon, 48 hr
Experimental: as §1

A498 = assay: as above; assay type: cell-based; details: Homo sapiens, A498, renal, 48 hr
Experimental: as §1

8K-MEL-5 = assay: as above; assay type: cell-based; details: Homo sapiens, 8K-MEL-5, melanoma, 48 hr
Experimental: as §1

NCI-11522 = assay: as above; assay type: cell-based; details: Homo sapiens, NCI-11522, lung, 48 hr
Experimental: as §1

NCI-H226 = assay: as above; assay type: cell-based; details: Homo sapiens, NCI-H226, lung, 48 hr
Experimental: as §1

EKVX = assay: as above; assay type: cell-based; details: Homo sapiens, lung, 48 hr
Experimental: as §1

RXF 393 = assay: as above; assay type: cell-based; details: Homo sapiens, RXF 393, renal, 48 hr
Experimental: as §1

SK-MEL-28 = assay: as above; assay type: cell-based; details: Homo sapiens, SK-MEL-28, melanoma, 48 hr
Experimental: as §1

[1] = test system: PC3 human prostate tumour cells; assay: Mouse xenograft tumour model; assay type: in vivo; details: 3 mg/kg intraperitoneal three times a week
Experimental: Athymic Balb/c nude mice (Rygard and Povisen, 1969, Acta Pathol Microbiol Scand, 77: 758) were inoculated subcutaneously in the dorsal flank with 2×10^6 PC3 cells. Compound A was administered (3 mg/kg) after eight days when the tumours became palpable by intraperitoneal injection three times a week. Compound A was first solubilized in ethanol then mixed 1:1 with cremaphore and diluted in saline for injection. Control animals were treated in an analogous manner with the same vehicle but lacking Compound A. (A) Effect of Compound A on mean tumour volume. Tumour volumes were measured using a micrometer caliper at the indicated times. The data represents mean tumour volume ±SEM (B) Effect of Compound A on mean tumour mass. At the end of the experiment (29 days post inoculation of PC3 cells) the mice were sacrificed, the tumours excised and then weighed. The data represents mean tumour weight ±SEM.
The ability of Compound A to inhibit growth of human tumour cells in vivo was assessed using male athymic mice injected subcutaneously in the dorsal flank region with 2×10^6 PC3 human prostate tumour cells. Compound A administration (3 mg/kg) by intraperitoneal injection commenced after eight days once the PC3 tumour was palpable and continued three times a week until 29 days after the initial inoculation of the tumour cells. At this time all mice were killed and tumours excised and weighed.

[2] = read-out: LC50 (the source's name)

Q: COC(=O)[C@H]1[C@@H](O)[C@@]2(O)c3c(OC)cc(OC4OC(C(O)CO)COC4OC)cc3O[C@@]2(c2ccc(OC)cc2)[C@@H]1c1ccccc1 (single isomer, unassigned) [Compound A] was tested. Which “cell cycle distribution and cell death” value (A549 cells; A549, 10 nM Compound A alone, three days) did it give?
A: Its value is “a minor decrease in cells in G0/G1 with a slight increase in G2/M phase cells with no detectable increase in cell death”.

Q: And the “effect on cytotoxicity of staurosporine” value (A549 cells; A549, 10 nM Compound A with 1 μM staurosporine, 3 days)?
A: The value was “little effect on the cytotoxic effects of staurosporine”.

Q: What about the “effect on cell cycle arrest and cytotoxicity of camptothecin, vinblastin and paclitaxel” value (A549 cells; A549, 10 nM Compound A, 3 days) of the same compound?
A: The value was “prevented their characteristic cell cycle arrest and significantly inhibited their cytotoxic effects”.

Q: What about the GI50 (SK-MEL-2) of the same compound?
A: Its GI50 is less than 10 nM.

Q: What about the CC50 (SK-MEL-2; [2]) of the same compound?
A: The CC50 was 19100 nM.

Q: What about the GI50 (SF-539) of the same compound?
A: The GI50 was less than 10 nM.

Q: And the CC50 (SF-539; [2])?
A: Its CC50 is 1100 nM.

Q: What about the GI50 (UACC-62) of the same compound?
A: The GI50 was less than 10 nM.

Q: What about the CC50 (UACC-62; [2]) of the same compound?
A: The CC50 was 30 nM.

Q: What about the GI50 (M14) of the same compound?
A: Its GI50 is less than 10 nM.

Q: And the CC50 (M14; [2])?
A: Its CC50 is 51 nM.

Q: What about the GI50 (MDA-MB-435) of the same compound?
A: Its GI50 is less than 10 nM.

Q: What about the CC50 (MDA-MB-435; [2]) of the same compound?
A: The CC50 was 45 nM.

Q: And the GI50 (ACHN)?
A: The GI50 was less than 10 nM.

Q: And the CC50 (ACHN; [2])?
A: Its CC50 is 31600 nM.

Q: And the CC50 (786-0; 786-0, renal, 48 hr)?
A: The CC50 was 91200 nM.

Q: And the CC50 (786-0; 786-0 renal tumour cells, 2 days of culture)?
A: The CC50 was roughly 90000 nM.

Q: And the GI50 (786-0; 786-0, renal, 48 hr)?
A: Its GI50 is less than 10 nM.

Q: What about the GI50 (HT29) of the same compound?
A: Its GI50 is less than 10 nM.

Q: And the CC50 (HT29; [2])?
A: The CC50 was 1000 nM.

Q: And the GI50 (SNB-75)?
A: Its GI50 is less than 10 nM.

Q: And the CC50 (SNB-75; [2])?
A: Its CC50 is 54 nM.

Q: What about the GI50 (IGROVI) of the same compound?
A: Its GI50 is less than 10 nM.

Q: And the CC50 (IGROVI; [2])?
A: Its CC50 is 2600 nM.

Q: And the GI50 (LOX IMV1)?
A: The GI50 was less than 10 nM.

Q: What about the CC50 (LOX IMV1; [2]) of the same compound?
A: Its CC50 is 1000 nM.

Q: And the GI50 (COLO-205)?
A: Its GI50 is less than 10 nM.

Q: And the CC50 (COLO-205; [2])?
A: Its CC50 is 10 nM.

Q: What about the GI50 (A498) of the same compound?
A: The GI50 was less than 10 nM.

Q: And the CC50 (A498; [2])?
A: The CC50 was 18600 nM.

Q: And the GI50 (8K-MEL-5)?
A: The GI50 was less than 10 nM.

Q: What about the CC50 (8K-MEL-5; [2]) of the same compound?
A: The CC50 was 67 nM.

Q: What about the GI50 (NCI-11522) of the same compound?
A: The GI50 was less than 10 nM.

Q: And the CC50 (NCI-11522; [2])?
A: The CC50 was 2400 nM.

Q: And the GI50 (NCI-H226)?
A: The GI50 was less than 10 nM.

Q: What about the CC50 (NCI-H226; [2]) of the same compound?
A: The CC50 was 193 nM.

Q: And the GI50 (EKVX)?
A: Its GI50 is less than 10 nM.

Q: And the CC50 (EKVX; [2])?
A: The CC50 was 23 nM.

Q: What about the GI50 (RXF 393) of the same compound?
A: The GI50 was less than 10 nM.

Q: And the CC50 (RXF 393; [2])?
A: Its CC50 is 1640 nM.

Q: And the GI50 (SK-MEL-28)?
A: Its GI50 is less than 10 nM.

Q: What about the CC50 (SK-MEL-28; [2]) of the same compound?
A: The CC50 was 2660 nM.

Q: What about the “reduction of mean tumour weight” value ([1]; 29 days post inoculation) of the same compound?
A: The value was roughly 60%.

Q: What about the mean tumour volume ([1]; vs vehicle) of the same compound?
A: Its mean tumour volume is “greatly reduced increase in mean tumour volume”.
